# “Also recorded” adds a separate entry of the source.
# Assays:
# [1] = PAR-FITC release from HA hydrogels in MH and DMEM culture media; conditions: for release rate in MH: followed during 72 hours at 37° C. in MH; for release in DMEM/FBS relative to MH: 24 h of incubation at 37° C.
# Protocol: Using FITC-labeled PARs of 10 units, 30 units and 200, the inventors evaluated their release at 37° C. from HA hydrogels in two different media.
# They performed discs imaging after 24 h of incubation at 37° C. in MH (Mueller Hinton broth, bacterial culture medium) and in DMEM (Dulbecco's modified Eagle's medium+10% FBS+antibiotics, cell culture medium).
# More specifically, PAR release from the hydrogels was followed during 72 hours in microbiological growth medium (MH) or cell culture medium (DMEM). PAR-FITC loaded hydrogels were placed into these media and incubated at 37° C., and PAR release was observed by confocal microscopy (FIG. 22).
# bacteria = test: Repetitive culture of bacteria with PAR-loaded HA hydrogel discs (fresh bacteria every 24 h); format: cell-based; conditions: for duration of antibacterial effect in repetitive culture, additional test: additional test (FIG. 15); for lowest loading concentration showing antibacterial effect: loaded HA hydrogels
# Protocol: Repetitive culture: after 24 h of bacterial culture, the samples were rinsed and seeded with fresh bacteria.
# After 24 h of bacterial culture, the samples were rinsed and seeded with fresh bacteria.
# Every 24 h of bacterial culture, the samples were seeded with fresh bacteria.
# [2] = PAR-loaded hydrogel stability in Tris/NaCl buffer; format: physicochemical; conditions: 48 h at room temperature or at 37° C.
# S. aureus = test: Antibacterial activity of PAR-loaded HA films, S. aureus culture, OD at 620 nm after 24 h; format: cell-based; conditions: loaded into HA hydrogels at 1 mg/mL; preliminary experiments
# Protocol: FIG. 3: Bacterial growth on PAR pre-loaded and post-loaded HA films. Bacterial growth was evaluated after 24 h by optical density (OD) measurement at 620 nm. PARO corresponds to HA film without PAR. HA 2.5%+BDDE 20% films were added with 1 mg/mL PAR after cross-linking (=post-loaded films).
# They assessed post-loading of PAR (adding 1 mg/mL solution of PAR onto cross-linked HA films). […] We also followed PAR release after 24 h from post-loaded films.
# After 24 h, OD at 620 nm was measured and bacterial viability on the surfaces was assessed using BacLight Redox Sensor CTC Vitality kit (Molecular Probes) as a fluorescent marker.
# Balb/3T3 cells = test: Direct in vitro cytotoxicity test (ISO 10993) with MTT test; conditions: 24 h
# Protocol: FIG. 14: Cell viability evaluation by MTT test. Balb/3T3 cells were seeded in 24-well plate and put in contact with HA hydrogel discs loaded or not with PARs for 24 h. HA discs correspond to BDDE-crosslinked HA hydrogel discs without PAR, and HA+PARs correspond to HA hydrogels loaded with different PAR concentrations (mg/mL). (A) Cell images after 24 h of direct in vitro cytotoxicity test. (B) Cell viability measured by MTT test. Dashed line corresponds to 70% viability (cytotoxicity limit).
# Direct in vitro cytotoxicity test consists in putting material in contact with the cells for 24 h and performing MTT test to evaluate cell viability. According to ISO 10993, the tested material should cover approximately 1/10 of cell layer surface, which corresponds to ˜5 mm hydrogel discs per well of a 24-well plate.
# After 24 h at 37° C., hydrogel discs were removed and MTT test was performed in order to measure cell metabolic activity, which often serves to estimate cell viability. […] The number of viable cells correlates to the colour intensity determined by photometric measurements after dissolving the formazan in alcohol (from ISO 10993).
# So the discs, loaded or not with PAR, were sterilized and placed onto ˜80% confluent layer of Balb/3T3 cells. For MTT assay, the cells were incubated for 2 h in 0.2 mg/mL MTT-containing cell culture medium. The medium was then removed and formazan was dissolved in DMSO. Absorbance of resulting solutions was measured at 570 nm using spectrophotometer and images were taken around and under the discs to evaluate cell morphology.
# [3] = PAR-FITC release from HA hydrogel discs in NaCl 1 M (confocal microscopy, spectrofluorimetry); conditions: for release according to the confocal microscopy images: 72 h at 37° C. in NaCl 1M, discs loaded with 0.5 mg/mL PAR-FITC; for released PAR (from percentage remaining, image processing): 72 h in NaCl 1 M, 100% = fluorescence intensity before release; for PAR concentration contained in the discs: disc volume approximately 30 μL, loaded in 0.5 mg·mL^−1
# Protocol: FIGS. 20-24: Release of PARs in NaCl and in culture media. HA discs were incubated with 0.5 mg·mL^−1 of three different FITC-conjugated PAR for 24 h. The discs were rinsed, then incubated for 72 h in NaCl 1 M, MH or DMEM.
# More specifically, total amounts of PAR contained in the hydrogels were estimated by incubation of hydrogels loaded with fluorescently labelled PAR in concentrated NaCl to promote PAR release. […] The percentage of PAR remaining in the hydrogel discs after 72 h of incubation was measured with image processing; 100% corresponds to fluorescence intensity before release. […] Then, amounts of PAR-FITC released were quantified by measuring fluorescence intensity of the supernatant by spectrofluorimetry and referring to a calibration curve.
# [4] = PAR mobility inside HA hydrogels by FRAP; format: physicochemical; conditions: discs loaded with 0.5 mg/mL FITC-conjugated PAR for 24 h
# Protocol: FIG. 8: PAR mobility inside HA hydrogels. HA discs were loaded with 0.5 mg/mL of three different FITC-conjugated PARs for 24 h and rinsed. Then, FRAP experiments were conducted. (A) Comparison of the fluorescence recovery of three PARs. (B) Determination of the diffusion coefficients D and percentage of mobile molecules p for three PARs.
# Next, the inventors studied PARs mobility inside the hydrogels (FIG. 8) using FRAP (fluorescence recovery after photobleaching) technique. […] Quantitative parameters such as diffusion coefficient were also determined (FIG. 8B).
# [5] = Loading of PAR-FITC into HA hydrogel discs (CLSM images, fluorescence profiles); format: physicochemical; conditions: for distribution in hydrogel discs (fluorescent profiles): discs loaded with 0.5 mg/mL PAR-FITC
# Protocol: FIG. 6: Loading of PAR30-FITC into HA hydrogel discs at different concentrations for 3 h and 24 h. (A) CLSM images (B) Quantification of PAR concentration in the center of the discs.
# FIG. 7: Loading of PARs-FITC into HA hydrogel discs. CSLM images of HA hydrogel discs loaded with 0.5 mg/mL of three PARs labelled with FITC (on the left) and fluorescence profiles of the resulting discs (on the right).
# To load PAR into the hydrogels, the discs were immersed in PAR solution and incubated at room temperature. For 4 mm discs in 24-well plate, 0.5 mL of PAR solution was used. Then the discs were rinsed with Tris/NaCl buffer two times: one short and one long (at least 1 hour) rinsing.
# To visualize PAR loading and diffusion inside the hydrogels, they again used fluorescently-labelled PARs (PAR10-FITC, PAR30-FITC, PAR200-FITC).
# [6] = 0.1 mg/mL-loaded hydrogels, fresh bacteria added every day
# [7] = HA hydrogel discs loaded at 1 mg/mL
# [8] = hydrogels loaded with 0.05 mg/mL
Substance,release rate in MH [1],"duration of antibacterial effect in repetitive culture, additional test (bacteria; 0.1 mg/mL-loaded hydrogels)",duration of antibacterial effect in repetitive culture (bacteria; [6]),duration of antibacterial effect in repetitive culture (bacteria; [7]),lowest loading concentration showing antibacterial effect (bacteria),PAR-FITC release in Tris/NaCl buffer [2],antibacterial activity (S. aureus),cell viability by MTT test (Balb/3T3 cells; 0.1 mg/mL-loaded hydrogels),cell viability by MTT test (Balb/3T3 cells; [8]),release according to the confocal microscopy images [3],"released PAR (from percentage remaining, image processing) [3]",PAR concentration contained in the discs [3],"mobility inside the hydrogels (qualitative, FRAP) [4]",distribution in hydrogel discs (fluorescent profiles) [5],release in DMEM/FBS relative to MH [1],duration of antibacterial effect in repetitive culture (bacteria; HA hydrogel discs loaded at 0.5 mg/mL),"comparison of prolonged antibacterial effect among PAR lengths (bacteria; PAR10, PAR30, PAR200 loaded HA hydrogels, repetitive culture)","diffusion into the disc center, 24 h vs. 3 h loading ([5]; PAR30-FITC loading for 3 h vs. 24 h)"
poly-L-arginine [PAR10],faster,3 days,2 days,8 days,0.05 mg/mL,no PAR-FITC release,antibacterial activity,good,good viability,almost complete,about 97%,about 7.3 mg·mL^−1,most mobile,more homogeneous distribution,,,,
poly-L-arginine [PAR200],released more gradually,,,7 days,,no PAR-FITC release,antibacterial activity,,,~80%,~78%,~3.9 mg/mL,least mobile,,higher than in MH,,,
poly-L-arginine [PAR30],released more gradually,5 days,4 days,8 days,0.05 mg/mL,no PAR-FITC release,antibacterial activity,good,good viability,~80%,~78%,~6.7 mg/mL,,more homogeneous distribution,higher than in MH,8 days,most prolonged antibacterial effect; also recorded: most efficient,diffused more into the discs center

# From US20220211914A1, “HYALURONIC ACID HYDROGELS WITH PROLONGED ANTIMICROBIAL ACTIVITY” (INSTITUT NATIONAL DE LA SANTE ET DE LA RECHERCHE MEDICALE …, priority 2019, published 2022)
